Experimental findings from ChEMBL document CHEMBL1145742, “Investigation of an antibody-ligase. Evidence for strain-induced catalysis” (Bioorg Med Chem Lett, 2003) are described below.

Assay [1] in a line: Kinetic parameter Kuncat against monoclonal antibody 16 G3.
Assay [2] can be described thus: Kinetic parameter effective molarity against monoclonal antibody 16 G3.
A short description of assay [3]: Substrate specificity, the ratio of Kcat to that of Km was determined against monoclonal antibody 16 G3.
Assay [4] in a line: Kinetic parameter Vmax against monoclonal antibody 16 G3.
Assay [5] in a line: Kinetic parameter KM against monoclonal antibody 16 G3.
Assay [6] can be described thus: Kinetic parameter Kcat against monoclonal antibody 16 G3.

In assay [1], `O=C(O)CCCC(=O)N[C@H](C(=O)Oc1ccc([N+](=O)[O-])cc1)C1CCCCC1` showed a Kuncat of 0.000833 M⁻¹ s⁻¹. The Molarity in assay [2] amounted to 2 M. The Substrate specificity in assay [3] came out at 3. In assay [4], the Vmax stood at 1 µM/min. Further, the Michaelis constant (Km) in assay [5] came out at 300 µM. In addition, the k cat in assay [6] worked out at 0.00167 s⁻¹.
For the molecule `O=C(O)CCCC(=O)N[C@@H](Cc1ccccc1)C(=O)Oc1ccc([N+](=O)[O-])cc1`, the Kuncat in assay [1] stood at 0.000667 M⁻¹ s⁻¹. In assay [2], the Molarity was found to be 15 M. Further, in assay [3], the Substrate specificity is 6. In addition, the Vmax in assay [4] stood at 6 µM/min. Further, in assay [5], the Km came out at 100 µM. In assay [6], the k cat turned out to be 0.01 s⁻¹.
`NC(=O)[C@H](N)Cc1c[nH]c2ccccc12`: in assay [5], the Km was 900 µM.

For orientation: Vmax means the top rate of the reaction or transport when substrate is in excess. The Km is the substrate concentration at which the rate is half of its maximum.
